Assay results from US12673954B2 (BRISTOL-MYERS SQUIBB COMPANY, priority 2021, dated 2026).
Like-named read-outs stand apart in the source and are kept apart here.

Assays:
[1] = tested on: NF-κB pathway, THP1-Dual™ cells; assay: STING reporter assay in THP1-Dual cells, NF-κB pathway (SEAP, QUANTI-Blue); type: cell-based, human; settings: THP1-Dual cells, 10% human plasma, 20 hours, SEAP, 100% activation = 100 μM cGAMP, read-out: NFkB (EC50 μM)
In short: (§1)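 Activation normalised between DMSO-only baseline and 100 μM cGAMP maximum, after 20 h compound exposure (starting at 100 μM final) at 37° C, 5% CO2. Supernatant SEAP (QUANTI-Blue, OD620) reports NF-κB; secreted luciferase (QUANTI-Luc, RLU at 5 min) reports IRF.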

[2] = tested on: IRF pathway, THP1-Dual™ cells; assay: STING reporter assay in THP1-Dual cells, IRF pathway (Lucia luciferase, QUANTI-Luc); type: cell-based, human; settings: THP1-Dual cells, 10% human plasma, 20 hours, Lucia luciferase, 100% activation = 100 μM cGAMP, read-out: IRF (EC50 μM)
In short: as §1

SMILES	EC50 ([1]; Homo sapiens, THP1-Dual, 20 h)	EC50 ([2]; Homo sapiens, THP1-Dual, 20 h)	EC50 [1]	EC50 [2]
CCOC(=O)OCOC(=O)c1cc(Cl)cc2cc(CNC(=O)c3cnn4cccnc34)oc12 [EXAMPLE 260, ((Ethoxycarbonyl)oxy)methyl 5-chloro-2-((pyrazolo[1,5-a]pyrimidine-3-carboxamido)methyl)benzofuran-7-carboxylate]	0.82 µM	1 µM	–	–
COC(OC(=O)c1cc(Br)cc2cc(CNC(=O)c3cnn4cccnc34)oc12)C(F)(F)F (single isomer, unassigned) [EXAMPLE 340, 2,2,2-Trifluoro-1-methoxyethyl 5-bromo-2-((pyrazolo[1,5-a]pyrimidine-3-carboxamido)methyl)benzofuran-7-carboxylate]	–	–	0.92 µM	0.91 µM
Cc1cc(C(=O)OC(CF)CF)c2oc(CNC(=O)c3cnn4cccnc34)c(Cl)c2c1 [EXAMPLE 302, 1,3-Difluoropropan-2-yl 3-chloro-5-methyl-2-((pyrazolo[1,5-a]pyrimidine-3-carboxamido)methyl)benzofuran-7-carboxylate]	0.52 µM	0.43 µM	–	–
Cc1ccc(C(=O)OCC(F)(F)F)c2oc(Cn3cnc4ccncc4c3=O)cc12 [EXAMPLE 360]	3.4 µM	2.8 µM	–	–
COc1cc(C(=O)OCC(F)(F)F)c2oc(CNC(=O)c3cnn4cccnc34)cc2c1 [EXAMPLE 280, 2,2,2-Trifluoroethyl 5-methoxy-2-((pyrazolo[1,5-a]pyrimidine-3-carboxamido)methyl)benzofuran-7-carboxylate]	2.4 µM	2.5 µM	–	–
CC(C)OC(=O)c1cccc2cc(CN3CCc4ccncc4C3=O)oc12 [EXAMPLE 206, Isopropyl 2-((1-oxo-3,4-dihydro-2,7-naphthyridin-2(1H)-yl)methyl)benzofuran-7-carboxylate]	12 µM	13 µM	–	–
C[C@H](NC(=O)c1cnn2cccnc12)c1oc2c(C(=O)O[C@H](C)C(F)(F)F)cc(Cl)cc2c1Cl [EXAMPLE 296, (R)-1,1,1-Trifluoropropan-2-yl 3,5-dichloro-2-((S)-1-(pyrazolo[1,5-a]pyrimidine-3-carboxamido)ethyl)benzofuran-7-carboxylate]	4.6 µM	5.7 µM	–	–
COC(=O)c1cc(F)cc2cc(CN3Cc4ncncc4C3=O)oc12 [EXAMPLE 44, Methyl 5-fluoro-2-((5-oxo-5,7-dihydro-6H-pyrrolo[3,4-d]pyrimidin-6-yl)methyl)benzofuran-7-carboxylate]	13 µM	12 µM	–	–
C=Cc1cc(C(=O)OC)c2oc(CNC(=O)c3cnn4cccnc34)cc2c1 [EXAMPLE 100, Methyl 2-((pyrazolo[1,5-a]pyrimidine-3-carboxamido)methyl)-5-vinylbenzofuran-7-carboxylate]	2.2 µM	2.5 µM	–	–
O=C(O)c1cc(Cl)cc2c(Cl)c(CNC(=O)c3cnn4cccnc34)oc12 [EXAMPLE 174, 3,5-Dichloro-2-((pyrazolo[1,5-a]pyrimidine-3-carboxamido)methyl)benzofuran-7-carboxylic acid]	91 µM	83 µM	–	–
CC(=O)OCOC(=O)c1cc(Cl)cc2cc(CNC(=O)c3cnn4cccnc34)oc12 [EXAMPLE 259, Acetoxymethyl 5-chloro-2-((13yrazole[1,5-a]pyrimidine-3-carboxamido)methyl)benzofuran-7-carboxylate]	2.2 µM	2.3 µM	–	–
COC(=O)c1cc(C(F)(F)F)cc2cc(CNC(=O)c3cnn4cccnc34)oc12 [EXAMPLE 106, Methyl 2-((pyrazolo[1,5-a]pyrimidine-3-carboxamido)methyl)-5-(trifluoromethyl) benzofuran-7-carboxylate]	1.1 µM	0.75 µM	–	–
COC(=O)c1cc(F)cc2cc(CNC(=O)c3cnn4cccnc34)oc12 [EXAMPLE 35, Methyl 5-fluoro-2-((pyrazolo[1,5-a]pyrimidine-3 carboxamido)methyl)benzofuran-7-carboxylate]	0.77 µM	0.53 µM	–	–
COCCOCCOC(=O)c1cc(Cl)cc2cc(CNC(=O)c3cnn4cccnc34)oc12 [EXAMPLE 258, 2-(2-Methoxyethoxy)ethyl 5-chloro-2-((pyrazolo[1,5-a]pyrimidine-3-carboxamido)methyl)benzofuran-7-carboxylate]	3.5 µM	3 µM	–	–
CSC(=O)c1cc(F)cc2cc(CNC(=O)c3cnc4cccnn34)oc12 [EXAMPLE 383, S-Methyl 5-fluoro-2-((imidazo[1,2-b]pyridazine-3-carboxamido)methyl)benzofuran-7-carbothioate]	1.1 µM	0.92 µM	–	–
COC(=O)c1cc(C)cc2cc(Cn3cnc4ccncc4c3=O)oc12 [Example 86, Methyl 5-methyl-2-((4-oxopyrido[4,3-d]pyrimidin-3(4H)-yl)methyl)benzofuran-7-carboxylate]	1.8 µM	1.7 µM	–	–
COC(=O)c1cccc2cc(CNC(=O)c3cnn4ccc(C)nc34)oc12 [EXAMPLE 10, Methyl 2-((5-methylpyrazolo[1,5-a]pyrimidine-3-carboxamido)methyl) benzofuran-7-carboxylate]	–	–	7.6 µM	7.5 µM
O=C(OCCOCCO)c1cc(Cl)cc2cc(CNC(=O)c3cnn4cccnc34)oc12 [EXAMPLE 249, 2-(2-Hydroxyethoxy)ethy1 5-chloro-2-((pyrazolo[1,5-a]pyrimidine-3-carboxamido)methyl)benzofuran-7-carboxylate]	2.5 µM	2.4 µM	–	–

Results, then the compound that gave them:

EC50 ([1]; Homo sapiens, THP1-Dual, 20 h)	EC50 ([2]; Homo sapiens, THP1-Dual, 20 h)	EC50 [1]	EC50 [2]	SMILES
2.5 µM	2.1 µM	–	–	CSC(=O)c1cc(F)cc2cc(Cn3cnc4ccncc4c3=O)oc12 [EXAMPLE 385, S-Methyl 5-fluoro-2-((4-oxopyrido[4,3-d]pyrimidin-3(4H)-yl)methyl)benzofuran-7-carbothioate]
1.4 µM	1.8 µM	–	–	COC(OC(=O)c1cc(Br)cc2cc(CNC(=O)c3cnn4cccnc34)oc12)C(F)(F)F (single isomer, unassigned) [EXAMPLE 339, 2,2,2-Trifluoro-1-methoxyethyl 5-bromo-2-((pyrazolo[1,5-a]pyrimidine-3-carboxamido)methyl)benzofuran-7-carboxylate]
65 µM	44 µM	–	–	CCOC(=O)c1cccc2cc(CN3Cc4ccncc4C3=O)oc12 [EXAMPLE 203, Ethyl 2-((3-oxo-1,3-dihydro-2H-pyrrolo[3,4-c]pyridin-2-yl)methyl)benzofuran-7-carboxylate]
5.2 µM	4.8 µM	–	–	CCOc1ncncc1C(=O)NCc1cc2cc(Cl)cc(C(=O)O[C@H](C)C(F)(F)F)c2o1 [EXAMPLE 263, (R)-1,1,1-trifluoropropan-2-yl 5-chloro-2-((4-ethoxypyrimidine-5-carboxamido)methyl)benzofuran-7-carboxylate]
–	–	30 µM	25 µM	CC(OC(=O)c1cccc2cc(CN3CCc4ccncc4C3=O)oc12)C(F)(F)F (single isomer, unassigned) [EXAMPLE 308, 1,1,1-Trifluoropropan-2-yl 2-((1-oxo-3,4-dihydro-2,7-naphthyridin-2(1H)-yl)methyl)benzo-furan-7-carboxylate]
0.35 µM	0.25 µM	–	–	O=C(OC(CF)CF)c1cc(F)cc2c(Cl)c(CNC(=O)c3cnn4cccnc34)oc12 [EXAMPLE 290, 1,3-Difluoropropan-2-yl 3-chloro-5-fluoro-2-((pyrazolo[1,5-a]pyrimidine-3-carboxamido)methyl)benzofuran-7-carboxylate]
7.1 µM	9.4 µM	–	–	CONC(=O)c1cc(Cl)cc2cc(CNC(=O)c3cnn4cccnc34)oc12 [EXAMPLE 406, N-((5-Chloro-7-(methoxycarbamoyl)benzofuran-2-yl)methyl)pyrazolo[1,5-a]pyrimidine-3-carboxamide]
3.7 µM	3.4 µM	–	–	CSC(=O)c1cc(F)cc2cc(CN3CCc4ccncc4C3=O)oc12 [EXAMPLE 386, S-Methyl 5-fluoro-2-((1-oxo-3,4-dihydro-2,7-naphthyridin-2(1H)-yl)methyl)benzofuran-7-carbothioate]
16 µM	13 µM	–	–	Cc1cc(C(=O)O[C@@H](C)C(F)(F)F)c2oc(C(C)NC(=O)c3cnn4cccnc34)cc2c1 (stereo partly drawn) [EXAMPLE 277, (S)-1,1,1-Trifluoropropan-2-yl 5-methyl-2-(1-(pyrazolo[1,5-a]pyrimidine-3-carboxamido)ethyl)benzofuran-7-carboxylate]
3.2 µM	3.1 µM	–	–	C[C@H](NC(=O)c1cnn2cccnc12)c1oc2c(C(=O)OCC(F)(F)F)cc(Cl)cc2c1Cl [EXAMPLE 297, 2,2,2-Trifluoroethyl (S)-3,5-dichloro-2-(1-(pyrazolo[1,5-a]pyrimidine-3-carboxamido)ethyl)benzofuran-7-carboxylate]
3.3 µM	3.6 µM	–	–	C[C@H](NC(=O)c1cnn2cccnc12)c1oc2c(C(=O)OC3COC3)cc(Cl)cc2c1Cl [EXAMPLE 298, Oxetan-3-yl (S)-3,5-dichloro-2-(1-(pyrazolo[1,5-a]pyrimidine-3-carboxamido)ethyl)benzofuran-7-carboxylate]
14 µM	12 µM	–	–	O=C(OCC(F)(F)F)c1cccc2cc(CN3CCc4ccncc4C3=O)oc12 [EXAMPLE 215, 2,2,2-Trifluoroethyl 2-((1-oxo-3,4-dihydro-2,7-naphthyridin-2(1H)-yl)methyl)benzofuran-7-carboxylate]
0.39 µM	0.53 µM	–	–	O=C(OCC(F)(F)F)c1cc(Cl)cc2cc(CNC(=O)c3cnn4cccnc34)oc12 [EXAMPLE 239, 2,2,2-Trifluoroethyl 5-chloro-2-((pyrazolo[1,5-a]pyrimidine-3-carboxamido)methyl)benzofuran-7-carboxylate]
